Experimental findings from ChEMBL document CHEMBL1131363, “Isoindolinone enantiomers having affinity for the dopamine D4 receptor” (Bioorg Med Chem Lett, 1998) are described below.

The test system of one experiment is Rattus norvegicus. Description: Reversal of amphetamine (at 0.5 mg/kg given intra peritoneal) stimulated locomotor activity at 3 mg/kg in rat. The format is functional.
Experiment [1] concerns the target 5-hydroxytryptamine receptor 2A (Bos taurus, UniProt Q75Z89). The experiment is described as follows: In vivo binding affinity was evaluated against 5-hydroxytryptamine 2 receptor. The format is organism-based.
Experiment [2] deals with T1, 5-hydroxytryptamine receptor 1A (Mus musculus, UniProt Q64264).
T1 sequence (Q64264 whole entry): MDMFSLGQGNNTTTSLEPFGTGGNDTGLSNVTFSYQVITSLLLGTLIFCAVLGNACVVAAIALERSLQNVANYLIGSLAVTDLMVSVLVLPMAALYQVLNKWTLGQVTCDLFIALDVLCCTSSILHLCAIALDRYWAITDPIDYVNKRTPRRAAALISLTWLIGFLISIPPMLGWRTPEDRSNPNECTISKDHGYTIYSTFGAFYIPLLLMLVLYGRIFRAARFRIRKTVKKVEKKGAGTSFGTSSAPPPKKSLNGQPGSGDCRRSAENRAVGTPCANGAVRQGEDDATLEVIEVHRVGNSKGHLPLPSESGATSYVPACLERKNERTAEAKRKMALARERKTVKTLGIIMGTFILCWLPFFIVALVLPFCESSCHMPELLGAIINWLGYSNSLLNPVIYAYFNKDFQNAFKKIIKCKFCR
Description: In vivo binding affinity was evaluated against 5-hydroxytryptamine 1A receptor. The class given is organism-based.

The target in a further experiment is T2, D(4) dopamine receptor (Homo sapiens, UniProt P21917).
T2 sequence (P21917 whole entry): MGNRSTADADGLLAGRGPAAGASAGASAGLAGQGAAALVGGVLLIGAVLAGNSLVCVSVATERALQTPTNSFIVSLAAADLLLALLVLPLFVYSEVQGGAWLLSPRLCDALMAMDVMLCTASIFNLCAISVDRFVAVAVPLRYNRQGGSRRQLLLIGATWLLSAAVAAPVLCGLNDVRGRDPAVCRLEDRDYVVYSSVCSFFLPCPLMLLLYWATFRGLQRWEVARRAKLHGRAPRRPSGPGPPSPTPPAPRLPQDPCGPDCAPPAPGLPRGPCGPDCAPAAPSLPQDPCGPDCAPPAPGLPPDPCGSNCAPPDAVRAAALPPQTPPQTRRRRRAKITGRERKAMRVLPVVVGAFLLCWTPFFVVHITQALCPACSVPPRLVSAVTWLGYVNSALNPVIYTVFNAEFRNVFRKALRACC
Description: In vitro binding affinity at human dopamine D4 receptor expressed in CHO cells by [3H]spiperone displacement. The class given is cell-based.

For a further experiment, the target named is D(3) dopamine receptor (Homo sapiens, UniProt P35462). Description: Displacement of [3H]spiperone from human Dopamine receptor D3 expressed in CHO cells. The class given is cell-based. In general terms: Displacement assays read how much labelled ligand stays bound in the presence of the test substance.
Sequence of D(3) dopamine receptor (P35462 whole entry): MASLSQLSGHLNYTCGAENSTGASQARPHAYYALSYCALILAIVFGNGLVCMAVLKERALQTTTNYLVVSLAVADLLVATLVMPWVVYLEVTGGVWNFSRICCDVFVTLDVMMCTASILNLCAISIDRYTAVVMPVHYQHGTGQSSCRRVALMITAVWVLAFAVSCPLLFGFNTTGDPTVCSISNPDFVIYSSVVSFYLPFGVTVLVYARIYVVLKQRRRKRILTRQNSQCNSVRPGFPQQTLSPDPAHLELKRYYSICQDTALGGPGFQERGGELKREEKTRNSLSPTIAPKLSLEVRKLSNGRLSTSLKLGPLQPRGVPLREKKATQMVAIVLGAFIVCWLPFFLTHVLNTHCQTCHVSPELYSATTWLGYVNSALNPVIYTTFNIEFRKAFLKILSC
A further experiment deals with D(2) dopamine receptor (Homo sapiens, UniProt P14416). Description: Displacement of [3H]spiperone from human Dopamine receptor D2 expressed in CHO cells. The format is cell-based.
Sequence of D(2) dopamine receptor (P14416 whole entry): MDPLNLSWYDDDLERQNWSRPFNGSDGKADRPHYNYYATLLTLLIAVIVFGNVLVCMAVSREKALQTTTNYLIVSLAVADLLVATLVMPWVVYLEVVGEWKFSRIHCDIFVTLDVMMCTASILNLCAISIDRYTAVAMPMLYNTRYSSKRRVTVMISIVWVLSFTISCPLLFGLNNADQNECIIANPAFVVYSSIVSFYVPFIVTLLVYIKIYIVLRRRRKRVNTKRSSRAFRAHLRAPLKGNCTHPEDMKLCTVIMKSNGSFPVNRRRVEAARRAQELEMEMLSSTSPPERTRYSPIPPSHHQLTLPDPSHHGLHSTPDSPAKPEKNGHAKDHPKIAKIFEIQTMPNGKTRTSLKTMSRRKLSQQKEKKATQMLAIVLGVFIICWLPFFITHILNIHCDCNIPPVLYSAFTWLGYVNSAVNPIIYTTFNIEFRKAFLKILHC

Molecules are shown by their SMILES.

Sequence of 5-hydroxytryptamine receptor 2A (Q75Z89 whole entry): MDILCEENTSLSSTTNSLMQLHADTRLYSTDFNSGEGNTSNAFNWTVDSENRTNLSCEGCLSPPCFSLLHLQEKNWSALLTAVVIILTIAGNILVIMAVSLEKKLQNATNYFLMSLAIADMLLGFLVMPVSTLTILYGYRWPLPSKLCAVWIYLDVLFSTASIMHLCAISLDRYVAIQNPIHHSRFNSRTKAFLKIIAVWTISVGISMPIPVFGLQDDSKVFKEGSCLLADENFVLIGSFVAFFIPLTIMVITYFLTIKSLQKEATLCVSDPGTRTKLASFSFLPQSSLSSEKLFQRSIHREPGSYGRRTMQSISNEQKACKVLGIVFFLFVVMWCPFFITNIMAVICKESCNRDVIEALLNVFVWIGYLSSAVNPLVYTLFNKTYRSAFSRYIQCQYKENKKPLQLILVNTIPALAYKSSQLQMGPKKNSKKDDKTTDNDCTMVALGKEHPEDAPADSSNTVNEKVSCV

For `Cc1ccc(N2CCN(CC[C@H]3NC(=O)c4ccccc43)CC2)cc1C`, the Activity in the experiment with Rattus norvegicus is listed as 8%. Besides, the results for the Ki in experiment [1] and in experiment [2] were 36.4 nM and 525 nM, respectively.

On to `O=C1NC(CCN2CCN(c3ccc4ccccc4c3)CC2)c2ccccc21` (configuration not stated), for which the figures for the Ki at D(4) dopamine receptor, on D(3) dopamine receptor and on D(2) dopamine receptor were 10 nM, > 3000 nM and > 5000 nM, respectively.

Turning to `COc1ccc(N2CCN(CCC3c4ccccc4C(=O)N3C)CC2)cc1` (configuration not stated), the figures for the Ki on D(4) dopamine receptor, at D(3) dopamine receptor and on D(2) dopamine receptor were 333 nM, > 3000 nM and > 5000 nM, respectively.

As to `Cc1ccc(N2CCN(CCC3c4ccccc4C(=O)N3C)CC2)cc1C` (configuration not stated), the Ki is 35.1 nM on D(4) dopamine receptor, > 3000 nM on D(3) dopamine receptor and > 5000 nM on D(2) dopamine receptor.

As for `Cc1ccc(N2CCN(CC[C@@H]3NC(=O)c4ccccc43)CC2)cc1C`, the Activity in the experiment with Rattus norvegicus is 70%. In addition, the Ki was 14.6 nM in experiment [1] and 991 nM in experiment [2].

With `OCc1ccc(N2CCN(CC[C@@H](O)c3ccc(Cl)cc3)CC2)cc1Cl`, the Ki at D(4) dopamine receptor worked out at 81.4 nM.

The molecule `OCc1ccc(N2CCN(CC[C@H](O)c3ccc(Cl)cc3)CC2)cc1Cl` had a Ki at D(4) dopamine receptor of 8.6 nM.

With `O=C(CCN1CCN(c2ccc(CO)c(Cl)c2)CC1)c1ccc(Cl)cc1`, affinity at D(4) dopamine receptor was put at a Ki of 60 nM.

At D(3) dopamine receptor, `Cc1ccc(N2CCN(CCC3NC(=O)c4ccccc43)CC2)cc1C` (configuration not stated) showed a Ki of 2680 nM.

`OCc1ccc(N2CCN(CCC(O)c3ccc(Cl)cc3)CC2)cc1Cl` (configuration not stated) had a Ki on D(4) dopamine receptor of 11 nM.

Consider `Cc1ccc(N2CCN(CCC3NC(=O)c4ccccc43)CC2)cc1` (configuration not stated), for which the Ki on D(3) dopamine receptor is > 3000 nM; on D(2) dopamine receptor it was > 5000 nM.

On to `O=C1NC(CCN2CCN(c3ccc(Cl)cc3)CC2)c2ccccc21` (configuration not stated), for which the values for the inhibitory constant (Ki) at D(3) dopamine receptor and at D(2) dopamine receptor were > 3000 nM and > 5000 nM, respectively.

With `Cc1ccnc(N2CCN(CCC3NC(=O)c4ccccc43)CC2)c1` (configuration not stated), the Ki on D(4) dopamine receptor is 22.6 nM; on D(3) dopamine receptor it was > 3000 nM; on D(2) dopamine receptor it was > 5000 nM.

For the molecule `Cc1ccc(C2CCN(CCC3NC(=O)c4ccccc43)CC2)cc1C` (configuration not stated), the Ki on D(3) dopamine receptor was > 3000 nM.

With `CN1C(=O)c2ccccc2C1CCN1CCN(c2ccc(Cl)cc2)CC1` (configuration not stated), the Ki at D(4) dopamine receptor is 78.6 nM; on D(3) dopamine receptor, > 3000 nM; on D(2) dopamine receptor, > 5000 nM.

Regarding `O=C1NC(CCN2CCN(c3ccccc3)CC2)c2ccccc21` (configuration not stated), the Ki at D(3) dopamine receptor is 2680 nM.

Regarding `Cc1nc(N2CCN(CCC3NC(=O)c4ccccc43)CC2)sc1C` (configuration not stated), the values for the Ki on D(3) dopamine receptor and at D(2) dopamine receptor were > 3000 nM and > 5000 nM, respectively.

Turning to `COc1ccc(N2CCN(CCC3NC(=O)c4ccccc43)CC2)cc1` (configuration not stated), the Ki is 37.3 nM at D(4) dopamine receptor, > 3000 nM on D(3) dopamine receptor and > 5000 nM on D(2) dopamine receptor.

A word on the Ki: it is a dissociation constant, usually derived from enzyme kinetics or from competition with a known ligand. Higher therefore signals weaker binding.
